Experimental data reported in publication PMC9738796, “Design of Conjugates Based on Sesquiterpene Lactones with Polyalkoxybenzenes by “Click” Chemistry to Create Potential Anticancer Agents” (Molecules, 2022).
Where two headings read alike, the source gives them in different places.

What was measured:
[1] = test system: A549 (adenocarcinomic human alveolar basal epithelial cells); test: MTT cell viability, A549; type: cell-based; details: 24 h
Source text: (§1) In this study we used human cell culture of tumor origin—SH-SY5Y (neuroblastoma), HeLa (cervical tumor), Hep-2 (larynx carcinoma), A549 (adenocarcinomic human alveolar basal epithelial cells); and normal cell line Hek 293 (human embryonic kidneys)), provided by the Laboratory of Tumor Cell Genetics of the Scientific Research Institute of Carcinogenesis, N.N. Blokhin National Medical Research Center of Oncology, as well as the Institute of Cytology of the Russian Academy of Sciences. While being grown for experiments, cells were cultured at 37 °C in a humidified CO2 atmosphere (5%) in a nutrient medium DMEM (PanEco, Moscow, Russia) and MEM (PanEco, Moscow, Russia), containing fetal bovine serum (10% by volume) (Thermo Fisher Scientific, Paisley, UK), Glutamax (2 mM) (Gibco, Renfrewshire, UK), and penicillin-streptomycin (1% by volume) (PanEco, Moscow, Russia).
(§2) Cell viability was determined by MTT test as described earlier. Cells were seeded in a 96-well plate in the amount of 1 × 10^4 cells/200 µL and cultured at 37 °C in a humidified CO2 atmosphere (5%) in a nutrient medium DMEM (PanEco, Moscow, Russia) and MEM (PanEco, Moscow, Russia). After 24 h of incubation, […] aliquots of test compounds ([…]) dissolved in DMSO were added to the cell cultures, and cells were cultured under the same conditions for 24 h. […] DMSO also was added to the control wells in a volume of 1%.
(§3) After 24 h, […] of MTT (3-(4,5-dimethylthiazol-2-yl)-2,5-diphenyltetrazolium bromide, 5 mg/mL) was added to each well and the plates were additionally incubated for 2 h.
(§4) Using a plate analyzer (Cytation3, BioTek Instruments Inc., Winooski, VT, USA), the optical density was determined at 530 nm. The concentration value causing 50% inhibition of cell population growth (IC50) was determined from dose-dependent curves.

[2] = test system: Hek 293 (human embryonic kidneys); test: MTT cell viability, normal Hek 293; type: cell-based; details: HEK293, 24 h
Source text: as §1, §2, §3, §4

[3] = test system: Hep-2 (larynx carcinoma); test: MTT cell viability, Hep-2; type: cell-based; details: Homo sapiens, 24 h
Source text: as §1, §2, §3, §4

[4] = test system: HeLa (cervical tumor); test: MTT cell viability, HeLa; type: cell-based; details: Homo sapiens, 24 h
Source text: as §1, §2, §3, §4

[5] = test system: SH-SY5Y (neuroblastoma); test: MTT cell viability, SH-SY5Y; type: cell-based; details: Homo sapiens, 24 h
Source text: as §1, §2, §3, §4

[6] = test system: SH-SY5Y cells; test: Glycolysis flux assay (Seahorse ECAR); type: cell-based, human; details: for decrease in ECAR: 100 µM, SH-SY5Y, kinetic curves (Figure 3d,e); for glycolytic capacity (ECAR change relative to control): SH-SY5Y (Figure 3c)
Procedure: The ability of compounds to suppress anaerobic glycolysis was studied using the Agilent Seahorse XF96e Analyzer (Seahorse Bioscience, Billerica, MA, USA) by the level of hydrogen proton production in the studied samples on cell lines of neuroblastoma SH-SY5Y [55].
The 30,000 SH-SY5Y cells per well were plated in an XF cell culture microplate (Seahorse Bioscience, Billerica, MA, USA). After plating cells, the microplate was kept overnight in a 37 °C, 5% CO2 incubator. On the following day the medium was aspirated, the cells washed and placed in serum-free, pyruvate-free and glucose-free medium (pH = 7.4). The microplate was kept for 45 min again in a 37° C, 5% CO2 incubator.
When SH-SY5Y cells were analyzed, we followed the procedure described in the Seahorse Glycolysis Stress Test kit. Briefly, initial extracellular acidification rate (ECAR) measurements were taken in the absence of glucose. […] This was followed by an injection of oligomycin from port C so that the final concentration of oligomycin in each well was […]. Lastly, a 25 mM final concentration of 2-deoxyglucose was injected from port D.
Data for each experimental condition derive from values obtained from a minimum of 5 separate wells.

[7] = test system: all cell lines (SH-SY5Y, HeLa, Hep-2, A549, Hek 293); test: MTT cytotoxicity, summary over all cell lines; type: cell-based; details: Homo sapiens; span over all cell lines
Source text: as §1
Cell viability was determined by MTT test as described earlier. Cells were seeded in a 96-well plate in the amount of 1 × 10^4 cells/200 µL and cultured at 37 °C in a humidified CO2 atmosphere (5%) in a nutrient medium DMEM (PanEco, Moscow, Russia) and MEM (PanEco, Moscow, Russia). […]
Using a plate analyzer (Cytation3, BioTek Instruments Inc., Winooski, VT, USA), the optical density was determined at 530 nm. […]

[8] = test system: HeLa (cervical tumor); details: HeLa column; cited from earlier work

| Compound | IC50 [1] | IC50 [2] | IC50 [3] | IC50 [4] | IC50 [5] | decrease in ECAR [6] | IC50 [7] | IC50 [8] | glycolysis (ECAR change relative to control) ([6]; 100 μM, SH-SY5Y (Figure 3b)) | glycolytic capacity (ECAR change relative to control) ([6]; 100 μM) |
| --- | --- | --- | --- | --- | --- | --- | --- | --- | --- | --- |
| C=C1CC[C@H]2C(CNCc3cn(Cc4ccc(OC)c(OC)c4)nn3)C(=O)O[C@@H]2C2C(=C)CCC12 (some centres unmarked) [10d] | > 100 µM | > 100 µM | 82.2 ± 1.15 µM | 26.4 ± 2.39 µM | 21.83 ± 0.02 µM |  |  |  |  |  |
| C[C@H]1CCC[C@]2(C)C[C@H]3OC(=O)C(CNCCn4cc(COCc5ccc6c(c5)OCO6)nn4)[C@H]3C=C12 (some centres unmarked) [7a] | 29.3 ± 1.37 µM | 38.9 ± 1.23 µM | 55.68 ± 0.52 µM | 39 ± 1.27 µM | 33.6 ± 1.27 µM | more than 50% | 29 to 55 µM |  |  |  |
| C=C1C(=O)O[C@@H]2[C@H]3C(C)=CC[C@@]34O[C@@]4(C)CC[C@@H]12 [Arglabin, arglabin, reference compound] |  | 78 ± 2.05 µM | 29.9 ± 0.93 µM |  | 34 ± 2.48 µM |  |  | 20 µM |  |  |
| C=C1CC[C@H]2[C@H](CNCCn3cc(COCc4ccc(OC)c(OC)c4)nn3)C(=O)O[C@@H]2C2C(=C)CCC12 (stereo partly drawn) [6d, (3R,3aS,9bS)-3-(((2-(4-(((3,4-Dimethoxybenzyl)oxy)methyl)-1H-1,2,3-triazol-1-yl)ethyl)amino)methyl)-6,9-dimethylenedecahydroazuleno [4,5-b]furan-2(9bH)-one] | > 100 µM | 69.47 ± 0.54 µM | > 100 µM | > 100 µM | 57.8 ± 1.71 µM |  |  |  | reaching a minimum |  |
| COc1ccc(Cn2cc(CNCC3C(=O)O[C@@H]4C[C@@]5(C)CCC[C@H](C)C5=C[C@H]34)nn2)cc1OC (some centres unmarked) [11d] | 91.2 ± 1.54 µM | 59.6 ± 1.84 µM | > 100 µM | 89.35 ± 0.4 µM | 56.1 ± 1.06 µM |  |  |  |  |  |
| C=C1CC[C@H]2C(CNCc3cn(Cc4ccc(OC)cc4)nn3)C(=O)O[C@@H]2C2C(=C)CCC12 (some centres unmarked) [10b] | 25.2 ± 3.44 µM | 56.65 ± 0.05 µM | 26.3 ± 0.38 µM | 16.6 ± 0.59 µM | 16.1 ± 0.46 µM |  |  |  |  |  |
| C[C@H]1CCC[C@]2(C)C[C@H]3OC(=O)C(CNCc4cn(Cc5ccc6c(c5)OCO6)nn4)[C@H]3C=C12 (some centres unmarked) [11a] | 95.9 ± 1.5 µM | 61.43 ± 0.1 µM | > 100 µM | 88.86 ± 0.21 µM | 71.8 ± 2 µM | more than 50% |  |  |  | reaching a minimum |
| C=C1CC[C@H]2[C@H](CNCCn3cc(COCc4ccc(OC)cc4)nn3)C(=O)O[C@@H]2C2C(=C)CCC12 (stereo partly drawn) [6b, (3R,3aS,9bS)-3-(((2-(4-(((4-Methoxybenzyl)oxy)methyl)-1H-1,2,3-triazol-1-yl)ethyl)amino)methyl)-6,9-dimethylenedecahydroazuleno [4,5-b]furan-2(9bH)-one] | > 100 µM | 56.4 ± 1.03 µM | > 100 µM | 61.52 ± 0.12 µM | 36.3 ± 2.38 µM |  |  |  |  |  |
| COc1cccc(Cn2cc(CNCC3C(=O)O[C@@H]4C[C@@]5(C)CCC[C@H](C)C5=C[C@H]34)nn2)c1OC (some centres unmarked) [11c] | > 100 µM | 67.91 ± 0.65 µM | > 100 µM | 88.2 ± 1.27 µM | > 100 µM |  |  |  |  |  |
| C=C1CCC2C(CNCCn3cc(COCc4ccc5c(c4)OCO5)nn3)C(=O)OC2C2C(=C)CCC12 [6a, (3R,3aS,9bS)-3-(((2-(4-((Benzo[d][1, 3]dioxol-5-ylmethoxy)methyl)-1H-1,2,3-triazol-1-yl)ethyl)amino)methyl)-6,9-dimethylenedecahydroazuleno [4,5-b]furan-2(9bH)-one] | 85.65 ± 0.38 µM | 57 ± 1.24 µM | 88.1 ± 2.66 µM | 62.4 ± 0.05 µM | 37.35 ± 0.28 µM | more than 50% |  |  |  | reaching a minimum |
| C=C1CC[C@H]2[C@H](CNCCn3cc(COCc4cccc(OC)c4OC)nn3)C(=O)O[C@@H]2C2C(=C)CCC12 (stereo partly drawn) [6c, (3R,3aS,9bS)-3-(((2-(4-(((2,3-Dimethoxybenzyl)oxy)methyl)-1H-1,2,3-triazol-1-yl)ethyl)amino)methyl)-6,9-dimethylenedecahydroazuleno [4,5-b]furan-2(9bH)-one] | > 100 µM | 59.8 ± 1.37 µM | > 100 µM | 82.4 ± 1.14 µM | 94.9 ± 1.08 µM |  |  |  |  |  |
| COc1ccc(COCc2cn(CCNC[C@H]3C(=O)O[C@@H]4C[C@@]5(C)CCC[C@H](C)C5=C[C@@H]43)nn2)cc1OC [7d, (3S,3aR,5S,8aR,9aR)-3-(((2-(4-(((3,4-Dimethoxybenzyl)oxy)methyl)-1H-1,2,3-triazol-1-yl)ethyl)amino)methyl)-5,8a-dimethyl-3,3a,6,7,8,8a,9,9a-octahydronaphtho [2,3-b]furan-2(5H)-one] | 83.5 ± 1.09 µM | 35.39 ± 0.29 µM | 91 ± 2.85 µM | 81 ± 3.17 µM | 45.2 ± 1.24 µM |  |  |  |  |  |
| COc1ccc(COCc2cn(CCNC[C@H]3C(=O)O[C@@H]4C[C@@]5(C)CCC[C@H](C)C5=C[C@@H]43)nn2)cc1 [7b, (3S,3aR,5S,8aR,9aR)-3-(((2-(4-(((4-Methoxybenzyl)oxy)methyl)-1H-1,2,3-triazol-1-yl)ethyl)amino)methyl)-5,8a-dimethyl-3,3a,6,7,8,8a,9,9a-octahydronaphtho [2,3-b]furan-2(5H)-one] | 47.3 ± 1.52 µM | 42.3 ± 1.09 µM | 67.16 ± 0.14 µM | 55.1 ± 0.94 µM | 41.7 ± 1.73 µM |  |  |  |  |  |
| COc1cccc(COCc2cn(CCNC[C@H]3C(=O)O[C@@H]4C[C@@]5(C)CCC[C@H](C)C5=C[C@@H]43)nn2)c1OC [7c, (3S,3aR,5S,8aR,9aR)-3-(((2-(4-(((2,3-Dimethoxybenzyl)oxy)methyl)-1H-1,2,3-triazol-1-yl)ethyl)amino)methyl)-5,8a-dimethyl-3,3a,6,7,8,8a,9,9a-octahydronaphtho [2,3-b]furan-2(5H)-one] | 53.11 ± 0.25 µM | 46.25 ± 0.22 µM | 62.6 ± 0.72 µM | 46.6 ± 0.81 µM | 40 ± 1.32 µM |  |  |  |  |  |
| C=C1CC[C@H]2C(CNCc3cn(Cc4cccc(OC)c4OC)nn3)C(=O)O[C@@H]2C2C(=C)CCC12 (some centres unmarked) [10c] | > 100 µM | 66.29 ± 0.08 µM | > 100 µM | 79.59 ± 0.33 µM | 89.5 ± 2.57 µM |  |  |  |  |  |
| COc1ccc(Cn2cc(CNCC3C(=O)O[C@@H]4C[C@@]5(C)CCC[C@H](C)C5=C[C@H]34)nn2)cc1 (some centres unmarked) [11b] | 70.3 ± 1.17 µM | 49.55 ± 0.33 µM | > 100 µM | 72.79 ± 0.07 µM | 60.38 ± 0.39 µM |  |  |  |  |  |
| C=C1CC[C@H]2C(CNCc3cn(Cc4ccc5c(c4)OCO5)nn3)C(=O)O[C@@H]2C2C(=C)CCC12 (some centres unmarked) [10a] | > 100 µM | 58.04 ± 0.07 µM | > 100 µM | 18 ± 0.32 µM | 19.3 ± 0.57 µM | more than 50% |  |  |  |  |
